Assay results: US20260232767A1, “INTERLEUKIN-23 RECEPTOR ANTAGONIST PEPTIDES FOR USE IN THE TREATMENT OF PSORIASIS” (Janssen Pharmaceutica NV, priority 2023, published 2026)
Like-named read-outs stand apart in the source and are kept apart here.

Test system: anti-drug antibodies to the IL-23 receptor antagonist peptide
Conditions: for Subjects negative for treatment-emergent anti-peptide antibodies, % / Subjects positive for treatment-emergent anti-peptide antibodies, %: through Week 16 or Follow-up Week 20; for Subjects positive for treatment-emergent anti-peptide antibodies at any time, %: through Week 16

CC(=O)NCCCC[C@@H]1NC(=O)[C@H](Cc2c[nH]c3c(C)cccc23)NC(=O)[C@H]([C@@H](C)O)NC(=O)[C@H](CC(N)=O)NC(=O)[C@@H](NC(C)=O)C(C)(C)SSC(C)(C)[C@@H](C(=O)N[C@@H](Cc2ccc(OCCN)cc2)C(=O)N[C@@H](Cc2ccc3ccccc3c2)C(=O)NC2(C(=O)N[C@@H](CCC(=O)O)C(=O)N[C@@H](CC(N)=O)C(=O)N[C@@H](Cc3cccnc3)C(=O)N(C)CC(N)=O)CCOCC2)NC1=O [IL-23 receptor antagonist peptide, Ac-[Pen]*-N-T-[W(7-Me)]-[Lys(Ac)]-[Pen]*-Phe[4-(2-aminoethoxy)]-[2-Nal]-[THP]-E-N-[3-Pal]-Sarc-NH2 (*[Pen]-[Pen]* formdisulfidebond)]
Footnote d group: Baseline titers 1:50, n subjects (25 mg BID, N=41): 0 | Peak titer group <50, n subjects (25 mg BID, N=41): 0 | Peak titer group >50-<100, n subjects (25 mg BID, N=41): 0 | Peak titer group ≥100-<1000, n subjects (25 mg BID, N=41): 0 | Peak titer group ≥1000, n subjects (25 mg BID, N=41): 0 | Positive at baseline: Baseline titers 1:50, n subjects (25 mg BID, N=41): 0 | Treatment-boosted (footnote c): Baseline titers 1:50, n subjects (25 mg BID, N=41): 0 | Treatment-emergent: Peak titers 1:50, n subjects (25 mg BID, N=41): 0 | Subjects negative for treatment-emergent anti-peptide antibodies, % (25 mg BID, N=41): 100% | Footnote d group: Baseline titers 1:50, n subjects (25 mg QD, N=42): 0 | Peak titer group <50, n subjects (25 mg QD, N=42): 1 | Peak titer group >50-<100, n subjects (25 mg QD, N=42): 0 | Peak titer group ≥100-<1000, n subjects (25 mg QD, N=42): 0 | Peak titer group ≥1000, n subjects (25 mg QD, N=42): 0 | Positive at baseline: Baseline titers 1:50, n subjects (25 mg QD, N=42): 0 | Treatment-boosted (footnote c): Baseline titers 1:50, n subjects (25 mg QD, N=42): 0 | Treatment-emergent: Peak titers 1:50, n subjects (25 mg QD, N=42): 1 | Subjects positive for treatment-emergent anti-peptide antibodies at any time, % (25 mg QD, N=42): (2.4%) | Subjects negative for treatment-emergent anti-peptide antibodies, % (25 mg QD, N=42): 97.6% | Subjects positive for treatment-emergent anti-peptide antibodies, % (25 mg QD, N=42): 2.4% | Footnote d group: Baseline titers 1:50, n subjects (50 mg QD, N=43): 3 | Peak titer group <50, n subjects (50 mg QD, N=43): 1 | Peak titer group >50-<100, n subjects (50 mg QD, N=43): 0 | Peak titer group ≥100-<1000, n subjects (50 mg QD, N=43): 0 | Peak titer group ≥1000, n subjects (50 mg QD, N=43): 0 | Positive at baseline: Baseline titers 1:50, n subjects (50 mg QD, N=43): 3 | Subjects positive at baseline who were treatment-boosted for antibodies (footnote d: titers did not increase 2-fold), % (50 mg QD, N=43): 7.0% | Subjects positive for anti-peptide antibodies at baseline, % (50 mg QD, N=43): 7.0% | Treatment-boosted (footnote c): Baseline titers 1:50, n subjects (50 mg QD, N=43): 0 | Treatment-emergent: Peak titers 1:50, n subjects (50 mg QD, N=43): 1 | Subjects positive for treatment-emergent anti-peptide antibodies at any time, % (50 mg QD, N=43): (2.3%) | Subjects negative for treatment-emergent anti-peptide antibodies, % (50 mg QD, N=43): 97.7% | Subjects positive for treatment-emergent anti-peptide antibodies, % (50 mg QD, N=43): 2.3% | Footnote d group: Baseline titers 1:50, n subjects (100 mg BID, N=41): 0 | Peak titer group <50, n subjects (100 mg BID, N=41): 3 | Peak titer group >50-<100, n subjects (100 mg BID, N=41): 0 | Peak titer group ≥100-<1000, n subjects (100 mg BID, N=41): 0 | Peak titer group ≥1000, n subjects (100 mg BID, N=41): 0 | Positive at baseline: Baseline titers 1:50, n subjects (100 mg BID, N=41): 0 | Treatment-boosted (footnote c): Baseline titers 1:50, n subjects (100 mg BID, N=41): 0 | Treatment-emergent: Peak titers 1:50, n subjects (100 mg BID, N=41): 3 | Subjects positive for treatment-emergent anti-peptide antibodies at any time, % (100 mg BID, N=41): (7.3%) | Subjects negative for treatment-emergent anti-peptide antibodies, % (100 mg BID, N=41): 92.7% | Subjects positive for treatment-emergent anti-peptide antibodies, % (100 mg BID, N=41): 7.3% | Footnote d group: Baseline titers 1:50, n subjects (100 mg QD, N=42): 0 | Peak titer group <50, n subjects (100 mg QD, N=42): 3 | Peak titer group >50-<100, n subjects (100 mg QD, N=42): 0 | Peak titer group ≥100-<1000, n subjects (100 mg QD, N=42): 0 | Peak titer group ≥1000, n subjects (100 mg QD, N=42): 0 | Positive at baseline: Baseline titers 1:50, n subjects (100 mg QD, N=42): 0 | Treatment-boosted (footnote c): Baseline titers 1:50, n subjects (100 mg QD, N=42): 0 | Treatment-emergent: Peak titers 1:50, n subjects (100 mg QD, N=42): 3 | Subjects positive for treatment-emergent anti-peptide antibodies at any time, % (100 mg QD, N=42): (7.1%) | Subjects negative for treatment-emergent anti-peptide antibodies, % (100 mg QD, N=42): 92.9% | Subjects positive for treatment-emergent anti-peptide antibodies, % (100 mg QD, N=42): 7.1% | Participants positive for ADA prior to the first dose (baseline) (3 of 209, all 50 mg QD group): 1.4% | Footnote d group: Baseline titers 1:50, n subjects (Combined doses, N=209): 3 | Peak titer group <50, n subjects (Combined doses, N=209): 8 | Peak titer group >50-<100, n subjects (Combined doses, N=209): 0 | Peak titer group ≥100-<1000, n subjects (Combined doses, N=209): 0 | Peak titer group ≥1000, n subjects (Combined doses, N=209): 0 | Positive at baseline: Baseline titers 1:50, n subjects (Combined doses, N=209): 3 | Subjects positive at baseline who were treatment-boosted for antibodies (footnote d: titers did not increase 2-fold), % (Combined doses, N=209): (1.4%) | Subjects positive for anti-peptide antibodies at baseline, % (Combined doses, N=209): (1.4%) | Treatment-boosted (footnote c): Baseline titers 1:50, n subjects (Combined doses, N=209): 0 | Treatment-emergent: Peak titers 1:50, n subjects (Combined doses, N=209): 8 | Subjects positive for treatment-emergent anti-peptide antibodies at any time, % (Combined doses, N=209): (3.8%) | Subjects negative for treatment-emergent anti-peptide antibodies, % (Combined doses, N=209): (96.2%) | Subjects positive for treatment-emergent anti-peptide antibodies, % (Combined doses, N=209): (3.8%)
